Earlier results on two compounds are cited in patent publication US9603775B2, “Delamination resistant pharmaceutical glass containers containing active pharmaceutical ingredients” (Corning Incorporated, priority 2013, dated 2017).

For data set [1], the system named is 26S proteasome.
The test system of data set [2] is IL-12 and IL-23 mediated signaling and cytokine cascades. Conditions: in vitro models.

With `CC(C)C[C@H](NC(=O)[C@H](Cc1ccccc1)NC(=O)c1cnccn1)B(O)O` [bortezomib, [(1R)-3-methyl-1-[[(2S)-1-oxo-3-phenyl-2-[(pyrazinylcarbonyl)amino]propyl]amino]butyl]boronic acid], the “effect on antigen presentation” value in data set [1] is “inhibited in a dose dependent manner”.

In the case of “ustekinumab: human IgG1κ monoclonal antibody that binds the p40 subunit of IL-12 and IL-23 cytokines”, in data set [2], the “effect on IL-12 and IL-23 mediated signaling and cytokine cascades” value was “disrupt IL-12 and IL-23 mediated signaling and cytokine cascades”.
